Assay: in vitro
Settings: human, hela cells, % viability

COc1cc(C(c2c[nH]c3ccccc23)c2c[nH]c3ccccc23)c(Br)cc1OC(C)=O [CBK266051]
viability at 28.5 h, 10 µM: 107%

C=CCn1c(SCC(=O)Nc2cccc(C(F)(F)F)c2)nnc1C12CC3CC(CC(C3)C1)C2 [CBK266054]
viability at 28.5 h, 10 µM: 105%

N/C(=N\OC(=O)CSc1ccccc1)c1ccccn1 [CBK266056]
viability at 28.5 h, 10 µM: 105%

Cc1nn(C)c(C)c1NC(=O)c1ccc(S(=O)(=O)N(C)C)cc1 [CBK266059]
viability at 28.5 h, 10 µM: 93.8%

COc1ccc(NC(=O)CSc2nc3ccccc3n2-c2ccccc2)c([N+](=O)[O-])c1 [CBK266060]
viability at 28.5 h, 10 µM: 91.8%

CCOc1cc(C(c2c[nH]c3ccccc23)c2c[nH]c3ccccc23)cc([N+](=O)[O-])c1O [CBK266061]
viability at 28.5 h, 10 µM: 101%

O=C(Nc1ccc(Br)c2cccnc12)c1ccc(COc2ccccc2)cc1 [CBK266062]
viability at 28.5 h, 10 µM: 94.2%

Cc1ccc(OCc2cccc3nsnc23)cc1[N+](=O)[O-] [CBK266063]
viability at 28.5 h, 10 µM: 98.2%

O=S1(=O)N=C(N2CCN(Cc3ccc4c(c3)OCO4)CC2)c2ccccc21 [CBK266064]
viability at 28.5 h, 10 µM: 104%

Cc1ccc(OCc2nnc(SCc3cccc(C#N)c3)n2Cc2ccccc2)cc1C [CBK266065]
viability at 28.5 h, 10 µM: 90.5%

c1ccc(SCCCN2CCNCC2)cc1 [CBK266067G]
viability at 28.5 h, 10 µM: 100%

CCC(C(=O)Nc1ccccc1C(=O)Nc1c(Cl)cccc1Cl)c1ccccc1 (stereo not shown) [CBK266068]
viability at 28.5 h, 10 µM: 98.4%

C=CCN(CC=C)CCOc1c(C)cc(C)cc1Br [CBK266070G]
viability at 28.5 h, 10 µM: 110%

C=CCc1cccc(Cl)c1OCCN1CCNCC1 [CBK266071G]
viability at 28.5 h, 10 µM: 105%

Cc1ccc(NC(=O)CSc2nnc(C(O)c3ccccc3)n2-c2ccccc2)c(C)c1 (stereo not shown) [CBK266072]
viability at 28.5 h, 10 µM: 106%

COc1ccc(OC)c(NC(=O)CSc2nnc(-c3ccc(F)cc3)n2C)c1 [CBK266073]
viability at 28.5 h, 10 µM: 92%

COc1cccc(-c2nnc(SCC(=O)Nc3cccc([N+](=O)[O-])c3)n2C)c1 [CBK266074]
viability at 28.5 h, 10 µM: 106%

O=C(CSc1nnc(-c2ccccc2O)n1Cc1ccccc1)NC12CC3CC(CC(C3)C1)C2 [CBK266075]
viability at 28.5 h, 10 µM: 88.9%

O=c1c2ccccc2nc(SCc2cccc3nsnc23)n1-c1ccccc1 [CBK266076]
viability at 28.5 h, 10 µM: 82.1%

c1ccc(SCc2nc(-c3cccnc3)no2)cc1 [CBK266078]
viability at 28.5 h, 10 µM: 101%

Nn1c(SCC(=O)Nc2cccc3ccccc23)nnc1-c1ccccc1Cl [CBK266080]
viability at 28.5 h, 10 µM: 97.7%

O=C(C1=C(O)C(=O)N(CCCn2ccnc2)C1c1ccc(Br)cc1)c1ccc2c(c1)OCCO2 (stereo not shown) [CBK266081]
viability at 28.5 h, 10 µM: 104%

CC1(C)C2CCC1(CS(=O)(=O)N(Cc1ccccc1)Cc1ccccc1)C(=O)C2 (stereo not shown) [CBK266082]
viability at 28.5 h, 10 µM: 107%

CC(C)(C)c1cc(-c2nc3ccccc3[nH]2)c(O)c(-c2nc3ccccc3[nH]2)c1 [CBK266084]
viability at 28.5 h, 10 µM: 90%

Cc1ccc(OCC(=O)Nc2ccc(N3CCN(Cc4ccccc4)CC3)cc2)cc1C [CBK266085]
viability at 28.5 h, 10 µM: 101%

Cc1cc(NC(=O)CSc2nc3c(c(C(F)(F)F)n2)CCc2ccccc2-3)n(-c2ccccc2)n1 [CBK266086]
viability at 28.5 h, 10 µM: 106%

N#CC1=C(N)Oc2[nH]nc(-c3cccs3)c2C1c1ccco1 (stereo not shown) [CBK266088]
viability at 28.5 h, 10 µM: 99%

O=C(CSc1nc(-c2ccco2)cc(C(F)(F)F)n1)NCc1ccco1 [CBK266091]
viability at 28.5 h, 10 µM: 95.1%

CCOC(=O)COc1ccc2c(=O)c(Oc3ccc([N+](=O)[O-])cc3)c(C)oc2c1C [CBK266092]
viability at 28.5 h, 10 µM: 96.6%

Cc1ccc(-n2c3c(cc(C(=O)NCCCN4CCOCC4)c2=O)C(=O)CCC3)cc1 [CBK266094]
viability at 28.5 h, 10 µM: 115%

CSCCc1[nH]c(SCC(=O)Nc2cccc3ccccc23)nc1C [CBK266097]
viability at 28.5 h, 10 µM: 91.3%

COc1ccc(C(=O)NC(=S)Nc2ccc(N3CCN(C)CC3)cc2)cc1[N+](=O)[O-] [CBK266098C]
viability at 28.5 h, 10 µM: 89%

CN1CCN(c2cc(N)nc(N)n2)CC1 [CBK266102]
viability at 28.5 h, 10 µM: 107%

O=C(COc1ccc2ccccc2c1)Nc1ccc(N2CCN(Cc3ccccc3)CC2)cc1 [CBK266104]
viability at 28.5 h, 10 µM: 98.3%

O=C(O)C1CC(O)CN1S(=O)(=O)c1ccc(Cl)cc1 (stereo not shown) [CBK266106]
viability at 28.5 h, 10 µM: 86.8%

CC1(C(=O)O)CC(C)(C(=O)O)CC(C)(C(=O)O)C1 (stereo not shown) [CBK266107]
viability at 28.5 h, 10 µM: 91.8%

CC(=O)c1cc2c(cc1NC(=O)CSc1nc3ccccc3[nH]1)OCO2 [CBK266110]
viability at 28.5 h, 10 µM: 69.8%

COC(=O)c1ccc(NC(=O)CSc2nnc(-c3ccc(C)cc3)n2N)cc1 [CBK266114]
viability at 28.5 h, 10 µM: 89.9%

COc1ccc(-c2cc(C(F)(F)F)nc(SCC(=O)NN3CCN(C)CC3)n2)cc1 [CBK266115]
viability at 28.5 h, 10 µM: 96.5%

COc1cc(C(=O)Nc2ccc(N3CCN(C)CC3)cc2)ccc1OCc1ccc(Cl)cc1 [CBK266116]
viability at 28.5 h, 10 µM: 99%

CCOC(=O)C1CCN(CC(=O)Nc2ccc(S(N)(=O)=O)cc2)CC1 [CBK266118]
viability at 28.5 h, 10 µM: 94%

COc1ccc(C(CCN)c2ccccc2OC)cc1 (stereo not shown) [CBK266125]
viability at 28.5 h, 10 µM: 103%

COC(=O)C1C(=O)Oc2ccc3ccccc3c2C1C(C)C(=O)c1ccc(Br)cc1 (stereo not shown) [CBK266126]
viability at 28.5 h, 10 µM: 114%

CC(Sc1nc2ccccc2[nH]1)C(=O)Nc1ccc(S(N)(=O)=O)cc1 (stereo not shown) [CBK266128]
viability at 28.5 h, 10 µM: 114%

O=C(Nc1ccccc1[N+](=O)[O-])C1Cc2ccccc2CN1S(=O)(=O)c1ccc(F)cc1 (stereo not shown) [CBK266129]
viability at 28.5 h, 10 µM: 102%

COc1ccc(S(=O)(=O)Nc2ccc3oc4c(c3c2)CC(C)CC4)cc1[N+](=O)[O-] (stereo not shown) [CBK266131]
viability at 28.5 h, 10 µM: 94.3%

Cc1ccc(-n2c(SCC(=O)c3ccc4c(c3)OCO4)nnc2-c2ccncc2)cc1 [CBK266132]
viability at 28.5 h, 10 µM: 104%

O=C(CSc1nnc(-c2cccnc2)n1-c1ccc(Br)cc1)Nc1ccc2c(c1)OCCO2 [CBK266133]
viability at 28.5 h, 10 µM: 96.4%

CC(C)C(NC(=O)C(C)(C)Oc1ccc(Cl)cc1)C(=O)O (stereo not shown) [CBK266138]
viability at 28.5 h, 10 µM: 94.5%

COC(=O)CSc1nnc(COc2ccc3c(c2)OCO3)n1-c1ccccc1 [CBK266139]
viability at 28.5 h, 10 µM: 107%

CN1CCN(c2ccc(NC(=O)c3cccc(Br)c3)cc2)CC1 [CBK266140]
viability at 28.5 h, 10 µM: 97.5%

S=C(Nc1ccc(Nc2ccccc2)cc1)N1CCN(Cc2ccc3c(c2)OCO3)CC1 [CBK266141]
viability at 28.5 h, 10 µM: 96.7%

CCOC(=O)N1CCN(C(=O)C2CC=CCC2C(=O)O)CC1 (stereo not shown) [CBK266142]
viability at 28.5 h, 10 µM: 104%

S=C(Nc1ccc(Nc2ccccc2)cc1)N1CCN(C/C=C/c2ccccc2)CC1 [CBK266149]
viability at 28.5 h, 10 µM: 102%

NC(=O)CSc1nnc(SCc2cccc3ccccc23)s1 [CBK266150]
viability at 28.5 h, 10 µM: 106%

CC(=O)OC(COc1cccc(Cl)c1)Cn1cnc2cc(C)c(C)cc21 (stereo not shown) [CBK266152]
viability at 28.5 h, 10 µM: 86.6%

O=C(O)C1CC(O)CN1S(=O)(=O)c1ccc([N+](=O)[O-])cc1 (stereo not shown) [CBK266158]
viability at 28.5 h, 10 µM: 100%

CC(=O)OC(COc1ccc(F)cc1)Cn1cnc2ccccc21 (stereo not shown) [CBK266162]
viability at 28.5 h, 10 µM: 104%

CCOC(=O)N1CCN(CC(=O)Nc2cc3c(cc2C(C)=O)OCO3)CC1 [CBK266163]
viability at 28.5 h, 10 µM: 99.8%

Cc1cc(C)cc(NC(=O)C(Cc2ccccc2)C(=O)Nc2cc(C)cc(C)c2)c1 [CBK266165]
viability at 28.5 h, 10 µM: 106%

CC1(C)Cc2nc3sc(C(=O)O)c(NC(=O)c4ccccc4)c3cc2CO1 [CBK266166]
viability at 28.5 h, 10 µM: 98.4%

CC(=O)Nc1ccc(C(=O)CSc2nc(-c3ccccc3)c(-c3ccccc3)o2)cc1 [CBK266168]
viability at 28.5 h, 10 µM: 87.6%

COc1ccc(-c2cc(C(F)(F)F)nc(SCC(=O)Nc3ccc4c(c3)OCO4)n2)cc1OC [CBK266169]
viability at 28.5 h, 10 µM: 101%

CCn1c(SCC(=O)Nc2ccc(Br)cc2F)nnc1-c1ccc(OC)cc1 [CBK266172]
viability at 28.5 h, 10 µM: 100%

Fc1ccc(CCNC(=S)NC2CCCC2)cc1 [CBK266175]
viability at 28.5 h, 10 µM: 99.9%

O=C(CSc1nnc(-c2ccncc2)n1C1CCCCC1)Nc1ncc2c(n1)CC(c1ccccc1)CC2=O (stereo not shown) [CBK266177]
viability at 28.5 h, 10 µM: 94.3%

O=C(COc1ccc(Br)cc1)Nc1ccc(CN2CCCCC2)cc1 [CBK266181]
viability at 28.5 h, 10 µM: 99.5%

Cc1ccccc1OCCn1c(CCCO)nc2ccccc21 [CBK266182]
viability at 28.5 h, 10 µM: 115%

Cc1ccc(C(=O)NC(C)c2nnc(SCC(=O)c3ccc(Br)cc3)n2C)cc1 (stereo not shown) [CBK266183]
viability at 28.5 h, 10 µM: 93.8%

Cc1ccc2nc(-c3ccc(NC(=O)CSc4nnc(C)s4)cc3)sc2c1 [CBK266185]
viability at 28.5 h, 10 µM: 92.5%

Cc1ccc(O)c(NC(=O)c2nc3nc(C)cc(C(F)F)n3n2)c1 [CBK266186]
viability at 28.5 h, 10 µM: 99.6%

COc1ccc(C(=O)NC(CC(=O)O)c2ccc(OC)cc2)cc1 (stereo not shown) [CBK266188]
viability at 28.5 h, 10 µM: 101%

CC(Sc1nc(N)cc(=O)[nH]1)C(=O)Nc1ccc(S(N)(=O)=O)cc1 (stereo not shown) [CBK266191]
viability at 28.5 h, 10 µM: 110%

N#Cc1c(NC(=O)CSc2nc(-c3ccco3)cc(C(F)(F)F)n2)sc2c1CCCC2 [CBK266193]
viability at 28.5 h, 10 µM: 87%

CN(C)CCCNc1ccc(-c2nnc(O)c3ccccc23)cc1[N+](=O)[O-] [CBK266200]
viability at 28.5 h, 10 µM: 100%

COc1ccccc1NC(=S)NCCc1ccc(S(N)(=O)=O)cc1 [CBK266201]
viability at 28.5 h, 10 µM: 95.1%

NC(=O)c1ccc(NC(=O)CSc2nnc(-c3ccncc3)n2-c2ccc(Br)cc2)cc1 [CBK266202]
viability at 28.5 h, 10 µM: 103%

O=C(COc1ccc([N+](=O)[O-])cc1)Nc1ccc(CN2CCCCC2)cc1 [CBK266204]
viability at 28.5 h, 10 µM: 118%

CCc1ccc(CC)c(S(=O)(=O)NC(CC(=O)O)c2ccccc2)c1 (stereo not shown) [CBK266208]
viability at 28.5 h, 10 µM: 102%

O=C(Nc1ccc(I)cc1C(=O)NCCN1CCOCC1)c1ccco1 [CBK266211]
viability at 28.5 h, 10 µM: 100%

O=C(Nc1ccc(I)cc1C(=O)N1CCCCC1CCO)c1cccc2ccccc12 (stereo not shown) [CBK266212]
viability at 28.5 h, 10 µM: 113%

CCN(CC)CC(=O)Nc1ccccc1OC [CBK266213C]
viability at 28.5 h, 10 µM: 113%

O=C(O)CSc1nnc(SCc2cccc3ccccc23)s1 [CBK266215]
viability at 28.5 h, 10 µM: 81.4%

NC(=O)C1(N2CCCCC2)CCN(C(=O)CSc2nnc(-c3ccccc3)n2C2CCCCC2)CC1 [CBK266219]
viability at 28.5 h, 10 µM: 101%

CC(=O)Nc1ccc(NC(=O)c2ccc(-c3ccc([N+](=O)[O-])cc3)o2)cc1 [CBK266220]
viability at 28.5 h, 10 µM: 99.8%
